According to ChEMBL document CHEMBL4825721, “Dual Glycolate Oxidase/Lactate Dehydrogenase A Inhibitors for Primary Hyperoxaluria” (ACS Med Chem Lett, 2021):
The source made the active and inactive calls. The calls are words filed in the database; no cut-off is given here.

Legend:
2-Hydroxyacid oxidase 1 [1] = target: T1, 2-Hydroxyacid oxidase 1 (Homo sapiens, UniProt Q9UJM8); assay: Inhibition of recombinant human GOX expressed in Escherichia coli C41 (DE3) using glycolate as substrate preincubated for 10 mins followed by substrate addition measured by Amplex red and horseradish peroxidase based fluorescence assay
T1 sequence (Q9UJM8 whole entry): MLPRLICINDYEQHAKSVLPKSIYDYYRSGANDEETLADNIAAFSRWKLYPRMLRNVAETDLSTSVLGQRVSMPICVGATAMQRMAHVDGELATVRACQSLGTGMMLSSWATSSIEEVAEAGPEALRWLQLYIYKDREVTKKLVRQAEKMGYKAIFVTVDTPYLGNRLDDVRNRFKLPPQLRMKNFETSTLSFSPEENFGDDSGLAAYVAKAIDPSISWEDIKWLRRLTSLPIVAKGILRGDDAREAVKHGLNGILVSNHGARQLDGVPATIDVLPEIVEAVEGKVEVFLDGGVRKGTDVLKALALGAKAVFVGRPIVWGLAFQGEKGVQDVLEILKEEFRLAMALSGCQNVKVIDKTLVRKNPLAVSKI

[2] = target: L-lactate dehydrogenase A chain (Homo sapiens, UniProt P00338); assay: Inhibition of recombinant human LDHA expressed in BL21 gold (DE3) using sodium pyruvate as substrate preincubated for 10 mins followed by sodium pyruvate and […] addition
[3] = target: T2, L-lactate dehydrogenase A chain (Mus musculus, UniProt P06151); assay: Inhibition of recombinant mouse LDHA expressed in BL21 gold (DE3) using sodium pyruvate as substrate preincubated for 10 mins followed by sodium pyruvate and […] addition
[4] = target: T2, L-lactate dehydrogenase A chain; assay: Inhibition of LDHA in wild type CD1 mouse primary hepatocyte assessed as inhibition of lactate production using pyruvate as substrate measured after 30 mins by LC-MS analysis; type: tissue-based
[5] = Inhibition of GOX/LDHA in Ag xt knockdown PH1 mouse primary hepatocyte assessed as reduction of oxalate production in the presence of glycolate measured after 2 hrs by ICMS analysis; type: tissue-based
Mus musculus = assay: In vivo inhibition of GOX/LDHA in C57BL/6N mouse assessed as increase in plasma glycolate levels at 100 mg/kg, po measured after 6 hrs; type: functional, organism-based
[6] = Drug distribution in C57BL/6N mouse liver at 100 mg/kg, po measured after 6 hrs by LC-MS/MS analysis; type: ADME, organism-based; details: in vivo
2-Hydroxyacid oxidase 1 [7] = target: T3, 2-Hydroxyacid oxidase 1 (Mus musculus, UniProt Q9WU19); assay: Inhibition of recombinant mouse GOX expressed in Escherichia coli C41 (DE3) using glycolate as substrate preincubated for 10 mins followed by substrate addition measured by Amplex red and horseradish peroxidase based fluorescence assay
T3 sequence (Q9WU19 whole entry): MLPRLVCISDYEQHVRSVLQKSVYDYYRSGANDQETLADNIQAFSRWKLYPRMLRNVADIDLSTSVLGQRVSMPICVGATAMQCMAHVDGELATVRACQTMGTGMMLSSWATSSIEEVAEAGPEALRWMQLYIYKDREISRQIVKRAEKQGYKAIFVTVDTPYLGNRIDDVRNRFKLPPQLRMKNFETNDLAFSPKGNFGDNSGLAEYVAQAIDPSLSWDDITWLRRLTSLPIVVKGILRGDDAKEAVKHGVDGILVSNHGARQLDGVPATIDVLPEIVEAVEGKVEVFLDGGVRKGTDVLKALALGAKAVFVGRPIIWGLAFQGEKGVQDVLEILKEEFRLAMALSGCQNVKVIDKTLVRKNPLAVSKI

Hydroxyacid oxidase 1 = target: T4, Hydroxyacid oxidase 1 (Sus scrofa, UniProt I3LVF1); assay: Inhibition of pig HAO1 in presence of NADH by spectrometry analysis
T4 sequence (I3LVF1 whole entry): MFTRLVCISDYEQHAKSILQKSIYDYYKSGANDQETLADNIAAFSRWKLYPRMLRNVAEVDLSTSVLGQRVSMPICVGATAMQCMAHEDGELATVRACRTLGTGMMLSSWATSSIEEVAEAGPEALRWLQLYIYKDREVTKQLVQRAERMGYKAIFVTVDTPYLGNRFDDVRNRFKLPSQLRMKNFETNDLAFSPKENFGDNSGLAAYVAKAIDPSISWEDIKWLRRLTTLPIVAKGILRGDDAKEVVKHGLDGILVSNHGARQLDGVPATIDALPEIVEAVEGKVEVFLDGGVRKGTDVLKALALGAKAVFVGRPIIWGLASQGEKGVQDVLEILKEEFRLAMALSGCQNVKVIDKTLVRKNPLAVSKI

2-Hydroxyacid oxidase 1 [8] = target: T3, 2-Hydroxyacid oxidase 1; assay: Non competitive inhibition of mouse glycolate oxidase in hyperoxaluric-Agxt knockdown mouse primary hepatocyte assessed as reduction in oxalate production in the presence of glycolate measured upto 72 hrs by enzymatic assay; type: tissue-based
[9] = In vivo inhibition of GOX/LDHA in C57BL/6N mouse assessed as increase in plasma glycolate levels at 100 mg/kg, po measured after 2 hrs; type: functional
[10] = Drug distribution in C57BL/6N mouse liver at 100 mg/kg, po measured after 2 hrs by LC-MS/MS analysis; type: ADME, organism-based; details: in vivo

IC50 (2-Hydroxyacid oxidase 1 [1]) | IC50 [2] | IC50 [3] | IC50 [4] | SMILES | IC50 [5] | further results
1.1 nM | 0.3 nM | 0.2 nM | 230 nM | NS(=O)(=O)c1ccc(Cc2c(-c3ccc(F)c(-c4ccc(Sc5nn[nH]c5C(=O)O)cc4)c3)nn(-c3nc(C(=O)O)cs3)c2CC2CC2)cc1F | – | –
3.6 nM | 0.3 nM | 0.4 nM | 170 nM | NS(=O)(=O)c1ccc(Cc2c(-c3ccc(F)c(-c4ccc(-c5nn[nH]c5C(=O)O)cc4)c3)nn(-c3nc(C(=O)O)cs3)c2CC2CC2)cc1F | – | –
1.2 nM | 0.07 nM | 0.4 nM | 198 nM | NS(=O)(=O)c1ccc(Cc2c(-c3ccc(F)c(-c4ccc(Oc5nn[nH]c5C(=O)O)cc4)c3)nn(-c3nc(C(=O)O)cs3)c2CC2CC2)cc1F | – | –
– | – | 0.1 nM | – | NS(=O)(=O)c1ccc(Cc2c(-c3cccc(-c4ccccc4)c3)nn(-c3nc(C(=O)O)cs3)c2CC2CC2)cc1 | 181 nM | –
0.9 nM | 0.1 nM | 0.2 nM | 143 nM | NS(=O)(=O)c1ccc(Cc2c(-c3ccc(F)c(-c4cccc(Oc5[nH]nnc5C(=O)O)c4)c3)nn(-c3nc(C(=O)O)cs3)c2CC2CC2)cc1F | – | inhibition (Mus musculus): inactive; Drug uptake [6]: Not Active
4.7 nM | 0.5 nM | 0.7 nM | 136 nM | NS(=O)(=O)c1ccc(Cc2c(-c3cccc(Sc4[nH]nnc4C(=O)O)c3)nn(-c3nc(C(=O)O)cs3)c2CC2CC2)cc1F | 88 nM | IC50 (2-Hydroxyacid oxidase 1 [7]): 7.7 nM; inhibition (Mus musculus): inactive; Drug uptake [6]: Not Active
11 nM | 0.4 nM | 0.3 nM | 732 nM | NS(=O)(=O)c1ccc(Cc2c(-c3ccc(F)c(Oc4[nH]nnc4C(=O)O)c3)nn(-c3nc(C(=O)O)cs3)c2CC2CC2)cc1F | – | –
– | – | – | – | O=C1NC(=O)C(c2ccc(-c3ccc(Br)cc3)cc2)=C1O | – | IC50 (Hydroxyacid oxidase 1): 87 nM
– | – | – | – | O=C(O)c1nnsc1Sc1ccc(Cl)cc1 | – | Ki (2-Hydroxyacid oxidase 1 [8]): 4500 nM
6.7 nM | – | – | – | O=C(O)c1[nH]nnc1Sc1ccc(Cl)cc1 | 149 nM | IC50 (2-Hydroxyacid oxidase 1 [7]): 14.6 nM; fold change (FC) [9]: 4; Drug uptake [10]: Active
